Results published in US9102671B2, “Compounds and compositions as TRK inhibitors” (Novartis AG, priority 2011, dated 2015).

Columns and labels:
[1] = test system: parental (untransformed) Ba/F3 cells; experiment: Ba/F3 cell proliferation, BAF3/WT (parental, IL3); assay type: cell-based, murine; conditions: Mus musculus, inhibition of proliferation of parental cells with IL3, 48 hours, Bright-Glo luminescence
Experimental: (§1) Test compounds were dissolved in DMSO (10 mM) and transferred into 1.4 mL flat bottom or V-shaped Matrix tubes carrying a unique 2D matrix chip by individual compound hubs. The numbers of these chips were distinctively linked to the individual compound identification numbers. The stock solutions were stored at −20° C. if not used immediately. For the test procedure the vials were defrosted and identified by a scanner whereby a working sheet is generated that guides the subsequent working steps.
(§2) Compound dilutions were made in 384 well plates. This format enabled the assay of maximally 28 individual test compounds at 11 concentrations (single points) including 2 reference compounds. The dilution protocol included the production of pre-dilution plates, master plates and assay plates: • Compound plates: 30 μL of individual compound (10 mM) DMSO solution including reference compound were transferred into columns 1 and 13 of a 384 well plate. 20 μL of DMSO were added to the rest of the wells and the compounds were serially diluted (1:3) by transferring 10 μL from a well in column 1 or 13 to the next well in column 2 or 14 respectively and successively with the help of a Minitrack robot. • Assay plates: Identical assay plates were then prepared by adding 50 nL each of compound dilutions of the compound plates into 384-well “assay plates”. In the following the compounds were mixed with 50 μL of assays components (cells or enzyme) and tested for their inhibitory activity.
Compounds were tested for their ability to inhibit the proliferation of wt Ba/F3 cells and Ba/F3 cells transformed with constitutively expressed luciferase reporter and BCR-ABL or Tel-FMS or other Tel fusion kinases (EGFR, JAK2, ALK, BMX, FGFR3, FGFR4, FGR2, FLT1, FLT3, IGF1R, INSR, KDR, KIT, LCK, LYN, MEK, MET, PDGFRα, PDGFRβ, RET, RON, ROS, SRC, SYK, TIE and TYRO) or BRafV600E. Parental Ba/F3 cells were maintained in media containing recombinant mouse IL3 and the kinase transformed Ba/F3 cells were maintained in media without IL-3. 7.5 nl of compounds were spotted to each well of 1536-well assay plates by Liquid handling System Echo 555 (Labcyte). 700 cells were then plated into each well of the assay plates in 7 uL culture media per well and compounds were tested at 0.17 nM to 10 uM in 3-fold serial dilutions. The cells were then incubated for 48 hours at 37° C. 3 uL of Bright-Glo® (Promega) was added to each well and the plates were read using ViewLux (PerkinElmer).
The cell line used is the luciferase expressing Ba/F3 murine hematopoietic progenitor cell line transformed with human Tel-TrkA, Tel-TrkB or Tel-TrkC cDNAs (Ba/F3 EN A/B/C). These cells maintained in RPMI/10% fetal bovine serum (RPMI/FCS) supplemented with penicillin 50 mg/mL, streptomycin 50 mg/mL and L-glutamine 200 mM. Untransformed Ba/F3 cells were similarly maintained with the addition 5 ng/ml of murine recombinant IL3. 50 μl of a Ba/F3 or Ba/F3 EN A/B/C cell suspension were plated in Greiner 384 well microplates (white)) at a density of 2000 cells per well. 50 nl of serially diluted test compound (10-0.0001 mM in DMSO solution) is added to each well. The cells were incubated for 48 hours at 37° C., 5% CO2. 25 μl of Bright Glo® (Promega) luciferase substrate is added to each well. The emited luminiscence is quantified using ViewLux (PerkinElmer). IC50 values were calculated by linear regression analysis of the percentage inhibition of each compound at 11 concentrations. […]

[2] = target: T1, Ba/F3 cells co-expressing full length rTrkA and mNGF (Rattus norvegicus, UniProt P35739); experiment: Ba/F3 cell proliferation, BaF3/TRKA-NGF; assay type: cell-based; conditions: inhibition of proliferation, 48 hours, Bright-Glo luminescence
T1 construct: co-expressing full length rTrkA and mNGF; expressed in transfected cells; host or cells: Ba/F3 murine hematopoietic progenitor cells
T1 sequence (P35739 33-799): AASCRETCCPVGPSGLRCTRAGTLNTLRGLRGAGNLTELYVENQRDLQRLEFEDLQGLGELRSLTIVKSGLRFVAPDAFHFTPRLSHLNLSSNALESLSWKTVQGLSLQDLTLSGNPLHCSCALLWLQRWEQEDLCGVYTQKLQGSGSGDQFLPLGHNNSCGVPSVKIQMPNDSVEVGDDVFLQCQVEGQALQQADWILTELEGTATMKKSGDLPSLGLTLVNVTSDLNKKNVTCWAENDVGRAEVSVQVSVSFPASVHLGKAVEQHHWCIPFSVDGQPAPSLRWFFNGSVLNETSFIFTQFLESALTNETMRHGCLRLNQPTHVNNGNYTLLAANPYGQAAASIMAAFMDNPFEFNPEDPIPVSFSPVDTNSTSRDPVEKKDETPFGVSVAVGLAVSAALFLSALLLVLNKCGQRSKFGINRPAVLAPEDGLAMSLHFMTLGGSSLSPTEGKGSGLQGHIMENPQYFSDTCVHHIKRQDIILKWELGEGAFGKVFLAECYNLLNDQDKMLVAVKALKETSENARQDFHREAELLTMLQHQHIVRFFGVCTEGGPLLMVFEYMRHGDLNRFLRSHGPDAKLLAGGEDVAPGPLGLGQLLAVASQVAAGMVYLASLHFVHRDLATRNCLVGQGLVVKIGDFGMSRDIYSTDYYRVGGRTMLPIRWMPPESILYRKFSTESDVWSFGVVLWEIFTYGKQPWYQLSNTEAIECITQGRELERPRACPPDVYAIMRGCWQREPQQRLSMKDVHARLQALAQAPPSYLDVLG
T1 sequence (P01139 122-241 partner): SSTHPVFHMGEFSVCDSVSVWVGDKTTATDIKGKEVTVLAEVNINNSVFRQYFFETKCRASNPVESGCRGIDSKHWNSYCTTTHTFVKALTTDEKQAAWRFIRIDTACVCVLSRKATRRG

[3] = target: T2, Ba/F3 cells transformed with human Tel-TrkA (Homo sapiens, UniProt P04629); experiment: Ba/F3 cell proliferation, Ba/F3 Tel-TrkA; assay type: cell-based; conditions: inhibition of proliferation, 48 hours, Bright-Glo luminescence; read-out: Ba/F3Tel-TrkA
T2 construct: expressed in transfected cells; host or cells: luciferase expressing Ba/F3 murine hematopoietic progenitor cell line; the other entry of the earlier key: ETV6 (P41212, Transcription factor ETV6)
T2 sequence (P04629 510-796 limits assumed): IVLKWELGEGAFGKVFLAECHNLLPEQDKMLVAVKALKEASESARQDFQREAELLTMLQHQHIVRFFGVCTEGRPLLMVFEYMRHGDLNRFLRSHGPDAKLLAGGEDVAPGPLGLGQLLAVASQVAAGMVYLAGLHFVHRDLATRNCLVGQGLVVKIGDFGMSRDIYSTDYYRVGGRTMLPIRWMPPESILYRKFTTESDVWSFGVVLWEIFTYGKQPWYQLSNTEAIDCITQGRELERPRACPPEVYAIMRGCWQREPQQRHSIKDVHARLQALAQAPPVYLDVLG
Experimental: as §1, §2
The cell line used is the luciferase expressing Ba/F3 murine hematopoietic progenitor cell line transformed with human Tel-TrkA, Tel-TrkB or Tel-TrkC cDNAs (Ba/F3 EN A/B/C). These cells maintained in RPMI/10% fetal bovine serum (RPMI/FCS) supplemented with penicillin 50 mg/mL, streptomycin 50 mg/mL and L-glutamine 200 mM. Untransformed Ba/F3 cells were similarly maintained with the addition 5 ng/ml of murine recombinant IL3. 50 μl of a Ba/F3 or Ba/F3 EN A/B/C cell suspension were plated in Greiner 384 well microplates (white)) at a density of 2000 cells per well. 50 nl of serially diluted test compound (10-0.0001 mM in DMSO solution) is added to each well. The cells were incubated for 48 hours at 37° C., 5% CO2. 25 μl of Bright Glo® (Promega) luciferase substrate is added to each well. The emited luminiscence is quantified using ViewLux (PerkinElmer). IC50 values were calculated by linear regression analysis of the percentage inhibition of each compound at 11 concentrations.
In certain examples compounds of Formula (I) have IC50 values from 0.1 nM 1 μM. In other examples, compounds of Formula (I) have IC50 values from 0.0001 μM to 0.8 μM. In other examples, compounds of Formula (I) have IC50 values from 0.0001 μM to 0.6 μM. In other examples, compounds of Formula (I) have IC50 values from 0.0001 μM to 0.4 μM. In other examples, compounds of Formula (I) have IC50 values from 0.0001 μM to 0.2 μM. In other examples, compounds of Formula (I) have IC50 values from 0.0001 μM to 0.1 μM. In other examples, compounds of Formula (I) have IC50 values from 0.0001 μM to 0.08 μM. In other examples, compounds of Formula (I) have IC50 values from 0.0001 μM to 0.06 μM. In other examples, compounds of Formula (I) have IC50 values from 0.0001 μM to 0.04 μM. In other examples, compounds of Formula (I) have IC50 values from 0.0001 μM to 0.02 μM. In other examples, compounds of Formula (I) have IC50 values from 0.0001 μM to 0.01 μM. In other examples, compounds of Formula (I) have IC50 values from 0.01 μM to 1 μM.

| SMILES | IC50 [1] | IC50 [2] | IC50 [3] |
| --- | --- | --- | --- |
| NC(=O)c1cnn2ccc(N3C[C@@H](F)C[C@@H]3c3cccc(F)c3)cc12 [Example X-5, 5-((2R,4S)-4-fluoro-2-(3-fluorophenyl)pyrrolidin-1-yl)pyrazolo[1,5-a]pyridine-3-carboxamide] | > 10 µM | 0.007 µM | 0.006 µM |
| NC(=O)c1cnn2ccc(N3CCCCC3c3cccc(F)c3)cc12 (centres unmarked) [Example X-12, 5-[2-(3-fluorophenyl)piperidin-1-yl]pyrazolo[1,5-a]pyridine-3-carboxamide] | > 10 µM | 0.097 µM | 0.225 µM |
| O=C(O)c1cnn2ccc(N3CC(F)(F)C[C@@H]3c3cccc(F)c3)cc12 [Example X-4, (R)-5-(4,4-difluoro-2-(3-fluorophenyl)pyrrolidin-1-yl)pyrazolo[1,5-a]pyridine-3-carboxylic acid] | > 10 µM | 0.666 µM | 1.68 µM |
| CC(C)(C)NC(=O)c1cnn2ccc(N3C[C@@H](F)C[C@@H]3c3cccc(F)c3)cc12 [Example X-16, N-tert-butyl-5-[(2R,4S)-4-fluoro-2-(3-fluorophenyl)pyrrolidin-1-yl]pyrazolo[1,5-a]pyridine-3-carboxamide] | > 10 µM | 0.006 µM | 0.005 µM |
| CCOC(=O)c1cnn2ccc(N3C[C@@H](F)C[C@@H]3c3cc(F)cc(C#N)c3)cc12 [Example X-7, ethyl 5-((2R,4S)-2-(3-cyano-5-fluorophenyl)-4-fluoropyrrolidin-1-yl)pyrazolo[1,5-a]pyridine-3-carboxylate] | 4.49 µM | 0.002 µM | 0.001 µM |
| CN1CCN(c2ccn3ncc(C(N)=O)c3c2)C(c2ccccc2)C1 (centres unmarked) [Example X-29] | > 10 µM | > 10 µM | > 10 µM |
| CN(C)C(=O)c1cnn2ccc(N3C[C@@H](F)C[C@@H]3c3cccc(F)c3)cc12 [Example X-15, 5-[(2R,4S)-4-fluoro-2-(3-fluorophenyl)pyrrolidin-1-yl]-N,N-dimethylpyrazolo[1,5-a]pyridine-3-carboxamide] | > 10 µM | 0.043 µM | 0.05 µM |
| CCOC(=O)c1cnn2ccc(N3C[C@@H](C#N)C[C@@H]3c3cccc(F)c3)cc12 [Example X-19, ethyl 5-((2R,4S)-4-cyano-2-(3-fluorophenyl)pyrrolidin-1-yl)pyrazolo[1,5-a]pyridine-3-carboxylate] | > 10 µM | 0.007 µM | 0.007 µM |
| O=C(Nc1cnn2ccc(N3C[C@@H](F)C[C@@H]3c3cccc(F)c3)cc12)OCc1ccccc1 [Example X-21, benzyl (5-((2R,4S)-4-fluoro-2-(3-fluorophenyl)pyrrolidin-1-yl)pyrazolo[1,5-a]pyridin-3-yl)carbamate] | > 10 µM | 0.179 µM | 0.177 µM |
| O=C(Nc1ccccc1)c1cnn2ccc(N3C[C@@H](F)C[C@@H]3c3cccc(F)c3)cc12 [Example X-22, 5-[(2R,4S)-4-fluoro-2-(3-fluorophenyl)pyrrolidin-1-yl]-N-phenylpyrazolo[1,5-a]pyridine-3-carboxamide] | > 10 µM | 0.017 µM | 0.011 µM |
| NC(=O)c1cnn2ccc(N3C[C@@H](C(N)=O)C[C@@H]3c3cccc(F)c3)cc12 [Example X-26, 5-((2R,4S)-4-carbamoyl-2-(3-fluorophenyl)pyrrolidin-1-yl)pyrazolo[1,5-a]pyridine-3-carboxamide] | > 10 µM | 0.232 µM | 0.443 µM |
| CCOC(=O)c1cnn2ccc(N3C[C@@H](C(N)=O)C[C@@H]3c3cccc(F)c3)cc12 [Example X-20, ethyl 5-((2R,4S)-4-carbamoyl-2-(3-fluorophenyl)pyrrolidin-1-yl)pyrazolo[1,5-a]pyridine-3-carboxylate] | > 10 µM | 0.002 µM | 0.002 µM |
| CCOC(=O)c1cnn2ccc(N3C[C@@H](F)C[C@@H]3c3cccc(F)c3)cc12 [Example X-1, ethyl 5-((2R,4S)-4-fluoro-2-(3-fluorophenyl)pyrrolidin-1-yl)pyrazolo[1,5-a]pyridine-3-carboxylate] | 4.1 µM | 0.001 µM |  |
